# Entries after “also recorded” stand apart in the source; their conditions may differ.
# Tests used:
# [1] = system: P. falciparum parasite line, 3D7; assay: microbe, parasite or virus in culture; format: cell-based, Plasmodium falciparum; conditions: P. falciparum 3D7 blood-stages, 0.1% initial parasitemia
# Description: FIG. 9 exemplifies a dose-dependent effect of CR-mimetic compounds on human P. falciparum blood-stages. Synchronized cultures were set at 0.1% initial parasitemia, treated with the various compounds and analysed by flow cytometry after SYBR Green labelling of parasite DNA at 72 hours or 96 hours post-treatment. Data (mean±sem) was […] to the untreated control on each experiment (3-5 independent experiments/compound). IC50 values were determined by GraphPad. Prism using non-linear regression variable slope (normalized) analysis. […] Data for rsv and SRT1720 was collected at 72 hours post-treatment, and 96 hours for all the other compounds.
# Example 7. Dose-dependent effect of CR-mimetic compounds on human P. falciparum blood-stages. Synchronized cultures of the P. falciparum parasite line, 3D7, were set at 0.1% initial parasitemia, treated with the various compounds and analysed by flow cytometry after SYBR Green labelling of parasite DNA at 72 hours or 96 hours post-treatment. […] Data for rsv and SRT1720 were collected at 72 hours post-treatment, and 96 hours for all the other compounds.
# P. falciparum 3D7 was continuously cultured in human erythrocytes at 4% hematocrit in RPMI 1640 supplemented with 0.5% Albumax II (Invitrogen), […] Hypoxanthine (Sigma) and 20 μg/ml Gentamicin (Invitrogen). Cultures were maintained at 37° C. in an atmosphere of 5% O2, 5% CO2, 90% N2, and synchronized by consecutive treatments of 5% Sorbitol (Sigma), for dose-response analysis, serial dilutions of the compounds were added to synchronized ring-stages of P. falciparum in 96-well plates. Initial parasitemia was set to 0.1% and hematocrit 2%. Parasite replication and reinvasion were assessed at the indicated time by flow cytometry based on fluorescent labelling of P. falciparum DNA. The SYBR Green I (Invitrogen) stained samples were analysed on a CyFlow® SL Blue or Accuri® BD flow cytometer and the data evaluated using FlowJo software (TreeStar) to determine the percentage of infected erythrocytes. IC50 values were calculated using GraphPad Prism.
# P. berghei sporozoites [2] = assay: Relative parasitemia after P. berghei sporozoite (liver-stage) infection of mice; format: in vivo, C57BL/6 mice; conditions: 72 h.p.i., vs control
# Description: Relative parasitemia in C57BL/6 mice that were infected with freshly dissected P. berghei sporozoites, and treated with salicylate or metformin, or maintained under control conditions. Salicylate (300 mg/Kg) was administered by i.p. injection once daily, starting one hour before infection, Metformin (500 mg/Kg) was provided in the drinking water for one week prior and during infection, (≥10 mice/group; each dot represents, one mouse). ***p<0.001; ****p<0.0001.
# Parasitemia was determined by flow cytometry analysis (BD FACSCAlibur200 or BD LSRFortessa®) of one drop of tail blood in PBS from C57BL/6 mice that were infected with GFP-expressing P. berghei parasites, and maintained on either AL or CR diets. Analysis on FlowJo® followed. The number of acquired total events ranged from 100-200 thousand. […] The GFP-expressing parasites were detected in the FITC channel. False GFP positive ceils (erythrocyte's auto-fluorescence) were eliminated by plotting FITC against PE.
# Relative parasitemia in C57BL/6 mice at 72 hours post infection (h.p.i) with freshly dissected P. berghei sporozoites, was determined by flow cytometry analysis (as described in Example 1) for mice treated with either salicylate or metformin, or maintained under control, untreated conditions. […]
# P. berghei sporozoites [3] = assay: Survival of P. berghei sporozoite-infected mice; format: in vivo, C57BL/6 mice; conditions: 15-day period
# From the text: FIG. 6 exemplifies that treatment with AMPK agonists protects P. berghei infected mice from severe malaria, leading to improved survival, C57BL/6 mice were infected and treated as in FIG. 5 (≥10 mice/group; p<0.05).
# Example 4. Improved survival of parasite-infected mice treated with AMPK agonists. To determine the effect of the AMPK activators, salicylate and metformin, on animal survival over a 15-day period following parasite infection, C57BL/6 mice were infected by i.d. injection of 5×10^3 P. berghei sporozoites. Salicylate (300 mg/Kg, Sigma No. 71945) was administered by i.p. injection once daily, starting one hour before infection. Metformin (500 mg/Kg. Sigma No D150959) was provided in the drinking water for one week prior to, and during, infection.
# [4] = system: P. berghei Δkin parasites; assay: In vitro schizont maturation, merozoites per segmented schizont (Δkin); format: cell-based, Plasmodium berghei; conditions: 24 h in vitro, medium with 25% fetal bovine serum
# Description: (§1) FIG. 7A exemplifies microscopy analysis and quantification of the number of merozoites per segmented schizont in P. berghei wild-type (wt), Δkin and complemented Δkin (Δkin+kin) parasites. Blood-stage parasites were allowed to mature for 24 hours into schizonts in vitro with medium supplemented with AL and CR sera. KIN is the AMPK homologue in Plasmodium parasites. ****p<0.0001.
# (§2) Example 5. The AMPK homologue, KIN, regulates the CR effect in Plasmodium parasites. P. berghei parasite wild-type respond to CR by decreasing the number of daughter merozoites on each cycle. […] The CR effect phenotype can be rescued by reintroducing the kin gene into Δkin parasite line.
# (§3) P. berghei blood-stage parasites can be maintained in vitro for only one developmental cycle (20-24 h), in which ring forms develop into mature schizonts, without bursting. Infected blood was obtained from in vivo infections containing mainly ring-stage forms at 1-3% parasitemia. Parasites were cultured in RPMI1640 medium containing 25 mM HEPES, 0.05 mg/ml Gentamicin or Penicillin/Streptomycin (all Gibco/Invitrogen), in 96-well plates. […] Parasite development and the number of merozoites per schizont were then assessed using light microscopy and image (http://rsbweb.nih.gov/ij/). Only mature schizont (segmenters) with clearly separated merozoites were scored.
# AMPKα (pAMPKα T172) = assay: Western blot of AMPK phosphorylation in liver homogenates; format: in vivo, C57BL/6 mice; conditions: non-infected mice, 1 hr after injection, vs vehicle
# From the text: Western blot analysis of liver homogenates from non-infected mice in AL and DR diets (top panel), and non-infected mice 1 hr after injection of salicylate or vehicle (bottom panel). Lane numbers 1-3 correlate to liver homogenates from individual mice. Representative blot probing with anti-phospho AMPKα (pAMPKα^T172), and -actin antibodies.
# Example 2. […] Western blot analysis of AMPK phosphorylation in liver homogenates from non-infected C57BL/6 mice in AL end DR diets, and non-infected mice one hour after injection of salicylate or vehicle. Livers were homogenized in ice-cold lysis buffer (50 mM HEPES, 150 mM NaCl, 10 mM NaF, 1 mM Sodium pyrophosphate, 0.5 mM EDTA, 1 mM DTT, 1% triton, 1 mM Na3VO4, 250 mM Sucrose, protease inhibitor cocktail and phosphatase inhibitors). Total protein content in each homogenate was measured by Bradford Assay (Bio-Rad), according to manufacturer's instructions. 50 μg of total liver lysates were resolved on either 8% SDS-PAGE or Any kD™ Mini-PROTEAN® precast gels (Bio-Rad) and transferred to a nitrocellulose membrane using standard wet transfer with 1× Tris-Glycine buffer containing 20% methanol for 2 hr at 100 V constant or were transferred using iBlot® gel Transfer Stacks (ThermoFisher). […]
# pAMPK was detected using rabbit anti-phospho-AMPKα T172 (mAb 40H9.1:1000, Cell Signaling Technology) (incubation for overnight at 4° C). […]
# [5] = system: P. berghei wild-type (wt) and complemented Δkin (Δkin+kin) parasites; assay: In vitro schizont maturation, merozoites per segmented schizont (wild-type and complemented Δkin); format: cell-based, Plasmodium berghei; conditions: 625 μM, 24 h in vitro, medium with 25% fetal bovine serum
# Description: as §1, §2, §3
# [6] = 300 mg/Kg i.p. once daily, starting one hour before infection
structure (smiles),measurement,setting,value
N#Cc1c(O)c2c(-c3ccc(-c4ccccc4O)cc3)csc2[nH]c1=O [A769662],IC50,[1]; 96 hours post-treatment,71 µM
O=C(Nc1ccccc1-c1cn2c(CN3CCNCC3)csc2n1)c1cnc2ccccc2n1 [SRT1720],IC50,[1]; 72 hours post-treatment,0.786 µM
CN(C)C(=N)N=C(N)N [metformin],IC50,"[1]; Plasmodium falciparum, 96 hours post-treatment",868 µM
same,Relative parasitemia (liver-stage infection),P. berghei sporozoites [2]; 500 mg/Kg in drinking water for one week prior and during infection,reduction of P. berghei liver-stage infection
same,Survival rate,P. berghei sporozoites [3]; 500 mg/Kg in drinking water for one week prior to and during infection,significant increases in the survival rates
Oc1ccc(C=Cc2cc(O)cc(O)c2)cc1 [resveratrol],IC50,"[1]; Plasmodium falciparum, 72 hours post-treatment",32 µM
O=C(O)c1ccccc1O [salicylate],IC50,[1]; 96 hours post-treatment,1300 µM
same,Parasite replication (merozoites per schizont),[4],fail to respond
same,AMPK phosphorylation (pAMPKα T172) in liver,AMPKα (pAMPKα T172),activation of AMPK
same,Relative parasitemia (liver-stage infection),P. berghei sporozoites [2]; [6],reduction of P. berghei liver-stage infection
same,Parasite replication (merozoites per schizont),[5],reduced parasite replication; also recorded: reduce replication
same,Survival rate,P. berghei sporozoites [3]; [6],significant increases in the survival rates

# Source: patent US20190054096A1, “METHODS FOR A[…] VIRULENCE” (priority 2015, published 2019)
